Legend:
Type in all cases: biochemical
JAK2 = JAK2 (Homo sapiens (Human), UniProt O60674); test: JAK kinase assay (KINASE-GLO luminescent), JAK2 enzyme; conditions: JAK2 enzyme 10 nM, Abl peptide substrate
Method: All compounds were initially prepared as 10 mM stocks in anhydrous dimethylsulfoxide (DMSO). A 20 μL aliquot of the 10 mM solutions was transferred to individual wells in column 1 of a 96-well polypropylene microtiter plate (Corning #3363) and diluted with DMSO to give a final compound concentration of 4 mM. Test compounds were then serially diluted 1:5 in DMSO for an 11-point concentration response and further diluted in the assay buffer bringing all compound concentrations to a final range of 100 μM to […] in 2.5% DMSO. The assay was performed in white 96-well, flat-bottom, half-area, non-binding assay plate (Corning #3642) in assay buffer consisting of 20 mM HEPES (pH 7.5), 10 mM MgCl2*6H2O, 100 μM sodium orthovanadate, 0.05% CHAPS and 0.1% bovine serum albumin. A 10 μL aliquot of compound from each well of the intermediate dilution plate and 20 μL of a 2× substrate/enzyme solution containing acceptor substrate (800 nM RSK2 peptide […] (SEQ ID NO: 1)), ROCK2 enzyme (10 nM), or ROCK1 enzyme, and 1,4-Dithiothreitol (DTT, 2 uM) were added to all wells. The reaction was initiated by the addition of 10 μL of 4× stock solution ATP (2 μM). Reactions were thoroughly mixed manually, covered, and allowed to incubate at room temperature for 75 min. Protein kinase activity was quantitated using Promega's KINASE-GLO™ luminescent Kinase Assay Kit according to the manufacturer's directions. ATP concentrations remaining in Test wells following the termination of the enzymatic reaction were compared against control wells containing equivalent amounts of DMSO containing no inhibitor (CTRL). […] Percent of Control (POC) values were determined for each concentration of compound tested according to the equation: […]
IC50 values were calculated using the following 4-parameter logistic curve-fitting algorithm:
Compounds were prepared in the exact same manner as described in the ROCK Kinase Assay with the exception to the substrate and enzyme. […]

TYK2 = TYK2 (Homo sapiens (Human), UniProt P29597); test: JAK kinase assay (KINASE-GLO luminescent), TYK2 enzyme; conditions: TYK2 enzyme 10 nM, Abl peptide substrate
Method in brief: (§1)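 Kinase-Glo luminescence measures ATP remaining after 75 min at room temperature; ATP 2 μM in 4× stock. 11-point 1:5 dilutions, 2.5% DMSO final. Percent of DMSO control per concentration, IC50 by 4-parameter logistic fit.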

JAK1 = JAK1 (Homo sapiens (Human), UniProt P23458); test: JAK kinase assay (KINASE-GLO luminescent), JAK1 enzyme; conditions: JAK1 enzyme 10 nM, Abl peptide substrate
Method in brief: as §1

Chain of TYK2 (P29597 whole entry, species assumed): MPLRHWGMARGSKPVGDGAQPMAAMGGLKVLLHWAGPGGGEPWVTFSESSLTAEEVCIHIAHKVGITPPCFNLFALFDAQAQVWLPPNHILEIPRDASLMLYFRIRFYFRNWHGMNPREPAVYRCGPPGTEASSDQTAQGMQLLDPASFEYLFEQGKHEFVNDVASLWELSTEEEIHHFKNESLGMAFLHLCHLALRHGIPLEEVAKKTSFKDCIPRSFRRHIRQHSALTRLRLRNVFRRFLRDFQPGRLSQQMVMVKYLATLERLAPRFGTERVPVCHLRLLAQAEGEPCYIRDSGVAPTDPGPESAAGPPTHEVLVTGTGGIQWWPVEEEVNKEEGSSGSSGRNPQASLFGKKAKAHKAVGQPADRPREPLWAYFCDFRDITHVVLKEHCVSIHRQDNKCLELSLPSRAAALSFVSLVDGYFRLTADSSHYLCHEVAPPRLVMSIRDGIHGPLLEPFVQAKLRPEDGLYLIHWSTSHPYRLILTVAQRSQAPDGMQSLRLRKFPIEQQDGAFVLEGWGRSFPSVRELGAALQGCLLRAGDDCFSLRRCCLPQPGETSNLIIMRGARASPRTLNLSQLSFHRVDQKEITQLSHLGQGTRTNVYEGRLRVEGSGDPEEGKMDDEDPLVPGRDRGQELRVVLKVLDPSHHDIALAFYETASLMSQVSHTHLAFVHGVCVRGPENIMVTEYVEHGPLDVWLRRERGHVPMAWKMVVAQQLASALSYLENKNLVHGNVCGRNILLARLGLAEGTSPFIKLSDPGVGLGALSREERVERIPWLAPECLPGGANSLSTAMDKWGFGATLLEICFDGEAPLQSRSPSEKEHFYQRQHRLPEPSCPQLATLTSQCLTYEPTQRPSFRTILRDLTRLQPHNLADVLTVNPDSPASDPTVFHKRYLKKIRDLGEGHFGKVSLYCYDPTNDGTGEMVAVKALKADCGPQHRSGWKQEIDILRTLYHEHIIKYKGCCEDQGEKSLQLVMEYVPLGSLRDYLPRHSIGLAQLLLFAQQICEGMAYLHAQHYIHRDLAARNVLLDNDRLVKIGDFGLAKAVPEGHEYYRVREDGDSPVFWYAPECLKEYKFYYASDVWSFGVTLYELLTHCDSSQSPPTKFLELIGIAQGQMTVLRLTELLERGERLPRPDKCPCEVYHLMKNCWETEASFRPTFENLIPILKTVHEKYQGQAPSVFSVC
Chain of JAK1 (P23458 whole entry, species assumed): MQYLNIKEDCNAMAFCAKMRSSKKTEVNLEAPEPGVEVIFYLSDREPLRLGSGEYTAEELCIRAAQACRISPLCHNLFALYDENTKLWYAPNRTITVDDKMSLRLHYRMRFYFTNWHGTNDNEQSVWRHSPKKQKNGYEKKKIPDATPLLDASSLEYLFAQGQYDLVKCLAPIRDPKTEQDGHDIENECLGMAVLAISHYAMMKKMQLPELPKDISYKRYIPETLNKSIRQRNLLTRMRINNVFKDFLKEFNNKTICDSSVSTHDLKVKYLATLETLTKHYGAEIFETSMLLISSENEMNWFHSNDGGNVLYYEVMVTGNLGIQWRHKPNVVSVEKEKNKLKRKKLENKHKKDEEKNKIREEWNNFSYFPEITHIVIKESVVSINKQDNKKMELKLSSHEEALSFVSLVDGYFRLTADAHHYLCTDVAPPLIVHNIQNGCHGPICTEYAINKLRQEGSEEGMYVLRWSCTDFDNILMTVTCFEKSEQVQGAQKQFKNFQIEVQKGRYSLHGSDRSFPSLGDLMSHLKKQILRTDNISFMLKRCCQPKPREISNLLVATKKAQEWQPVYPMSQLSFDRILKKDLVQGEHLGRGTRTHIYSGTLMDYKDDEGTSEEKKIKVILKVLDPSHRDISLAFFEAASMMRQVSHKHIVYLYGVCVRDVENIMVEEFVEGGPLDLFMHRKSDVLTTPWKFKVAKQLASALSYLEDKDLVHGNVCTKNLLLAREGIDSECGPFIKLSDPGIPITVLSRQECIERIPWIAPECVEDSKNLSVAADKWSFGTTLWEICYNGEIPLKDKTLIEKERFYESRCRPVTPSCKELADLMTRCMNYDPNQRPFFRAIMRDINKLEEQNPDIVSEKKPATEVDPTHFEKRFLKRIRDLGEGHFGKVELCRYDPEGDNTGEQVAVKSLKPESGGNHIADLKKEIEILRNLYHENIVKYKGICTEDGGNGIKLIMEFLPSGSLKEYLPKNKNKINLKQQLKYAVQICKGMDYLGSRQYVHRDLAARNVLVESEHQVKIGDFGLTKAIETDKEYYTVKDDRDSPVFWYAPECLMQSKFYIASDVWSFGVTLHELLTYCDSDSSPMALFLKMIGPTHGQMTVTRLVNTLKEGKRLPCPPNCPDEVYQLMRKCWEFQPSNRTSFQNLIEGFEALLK
Chain of JAK2 (O60674 whole entry, species assumed): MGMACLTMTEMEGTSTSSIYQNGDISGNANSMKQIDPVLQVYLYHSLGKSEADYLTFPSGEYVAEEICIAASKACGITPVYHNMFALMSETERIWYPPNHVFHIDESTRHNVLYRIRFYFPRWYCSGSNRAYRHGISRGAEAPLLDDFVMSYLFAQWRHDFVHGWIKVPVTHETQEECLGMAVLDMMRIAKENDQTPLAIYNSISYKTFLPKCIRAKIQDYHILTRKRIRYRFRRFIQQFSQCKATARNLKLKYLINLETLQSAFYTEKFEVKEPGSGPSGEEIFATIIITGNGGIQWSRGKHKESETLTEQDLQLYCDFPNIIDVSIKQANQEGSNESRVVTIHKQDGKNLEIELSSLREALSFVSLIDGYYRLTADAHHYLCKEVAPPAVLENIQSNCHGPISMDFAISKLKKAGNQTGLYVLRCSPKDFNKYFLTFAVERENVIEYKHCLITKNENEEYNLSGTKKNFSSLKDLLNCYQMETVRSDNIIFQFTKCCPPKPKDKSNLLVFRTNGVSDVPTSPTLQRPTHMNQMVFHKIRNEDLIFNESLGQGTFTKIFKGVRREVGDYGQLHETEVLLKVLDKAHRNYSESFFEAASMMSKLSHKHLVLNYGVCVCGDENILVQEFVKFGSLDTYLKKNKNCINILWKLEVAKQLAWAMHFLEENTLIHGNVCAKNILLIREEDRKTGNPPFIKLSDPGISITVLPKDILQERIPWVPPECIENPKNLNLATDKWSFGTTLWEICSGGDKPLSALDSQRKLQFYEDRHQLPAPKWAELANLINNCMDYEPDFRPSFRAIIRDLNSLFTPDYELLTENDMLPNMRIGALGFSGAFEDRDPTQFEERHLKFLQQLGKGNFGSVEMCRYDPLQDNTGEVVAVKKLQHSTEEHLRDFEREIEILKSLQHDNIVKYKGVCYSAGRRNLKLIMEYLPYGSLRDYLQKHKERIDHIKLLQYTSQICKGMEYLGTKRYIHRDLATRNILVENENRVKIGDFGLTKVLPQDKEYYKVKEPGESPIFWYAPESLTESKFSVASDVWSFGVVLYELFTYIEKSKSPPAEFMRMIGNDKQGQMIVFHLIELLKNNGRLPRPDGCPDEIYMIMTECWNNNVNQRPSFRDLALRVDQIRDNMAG

| SMILES | IC50 (JAK2) [µM] | IC50 (TYK2) [µM] | IC50 (JAK1) [µM] |
| --- | --- | --- | --- |
| Cc1cc(Nc2ncc(C)c(N3CC(C#N)C3)n2)sn1 [E7] | < 0.05 |  |  |
| Cc1cnc(Nc2ccc3c(c2)CN(C)C3)nc1N1CC(CC#N)(N2CCC(CCF)CC2)C1 [E112] | < 0.05 |  | < 0.05 |
| Cc1cnc(Nc2cccnc2)nc1N1CC(CC#N)(N2CCN3CCCC[C@H]3C2)C1 [E216-T] |  | < 0.05 | < 0.05 |
| Cc1cc(Nc2ncc(C)c(N3CC(CC#N)(N4CCN(CCF)CC4)C3)n2)sn1 [E55a] |  | < 0.01 | < 0.01 |
| CO[C@@H]1C[C@H]2CN(C3(CC#N)CN(c4nc(Nc5cc(C)ns5)ncc4C)C3)CCN2C1 [E72a] |  | < 0.01 | < 0.01 |

Further lines, results first:

| IC50 (JAK2) [µM] | IC50 (TYK2) [µM] | IC50 (JAK1) [µM] | SMILES |
| --- | --- | --- | --- |
| < 0.02 | < 0.01 |  | Cc1cc(Nc2ncc(C)c(N3CC(CC#N)(N4CCN(C)[C@H](C)C4)C3)n2)sn1 [E52C] |
|  | < 0.01 | < 0.02 | Cc1cc(Nc2ncc(C)c(N3CC(CC#N)(NS(C)(=O)=O)C3)n2)sn1 [E291, N-(3-(cyanomethyl)-1-(5-methyl-2-((3-methylisothiazol-5-yl)amino)pyrimidin-4-yl)azetidin-3-yl)methanesulfonamide] |
|  | < 0.005 | < 0.01 | Cc1cc(Nc2ncc(C)c(N3CC(CC#N)(N4CCN(C)C(CCF)C4)C3)n2)sn1 (stereo not drawn) [E117-R] |
